Measured values taken from patent US20110196000A1, “Use of succinate dehydrogenase (SDH) inhibitors in the treatment of plant species from the family of the true grasses” (Bayer CropScience AG, priority 2010, published 2011).

Experiments:
[1] = tested on: infection-free wheat plants of the cultivar Passat; experiment: Glasshouse trial: size of the flag leaf; assay type: in vivo; details: for Length of the flag leaf / Width of the flag leaf / Area of the flag leaf / Area [rel.] of the flag leaf: at BBCH 83-85; for Area of the flag leaf: calculated using the formula A = 0.67 × length × width; for Area [rel.] of the flag leaf: untreated = 100
Procedure: In a glasshouse trial under controlled conditions, the effect of bixafen was investigated on the physiology, morphology and abiotic stress tolerance of infection-free wheat plants of the cultivar […] plants were grown in 10-litre containers over a period of 4 months. The substrate used was standard earth type ED 73 (Fröndenberg, Germany)+C-Horizont+Sand (4:2:1). The supply of nutrient to the plants took place by feeding with a 0.2% strength Flory 2 liquid fertilizer solution (from Euflor, Munich) once every two weeks. The plants were supplied with water as required. In each component of the trial, 10 repetitions were carried out. To prevent infestation with powdery mildew, Proquinazid (Talius® was applied once. The incidence of aphids and spider mites was avoided by treatments with Karate®, Bulldock® and Sumicidin®. The products under test were applied to the plants, in the form of sequential spray sequences (BBCH 39 and 59). The spray volume was 300 l of water per hectare. [table] Morphological parameters measured, additionally, were the length and width, i.e. the size of the flag leaf. This was greatest with the succinate dehydrogenase (SDH) inhibitor bixafen, in comparison to the other comparison fungicides.

Wheat plants = experiment: Effect of single and double bixafen treatment on leaf area; assay type: in vivo; details: for Area [rel.] of the flag leaf / Area [rel.] of the leaf F-1: untreated = 100
Procedure: Trial procedure: Wheat plants were treated at different development stages with bixafen once or twice (125 g/ha each time), and a measurement was made of the respective size of the flag leaf and of the leaf F-1 at the time BBCH 75. For the destructive measurement of the leaf area, the leaves were removed from the plant. The non-destructive measurement was carried out on the intact leaf of the plant.

[2] = treated at BBCH 33 (125 g/ha), measured at BBCH 75, destructive
[3] = treated at BBCH 33 (125 g/ha), measured at BBCH 75, non-destructive
[4] = treated at BBCH 33 + 39 (125 g/ha each time), measured at BBCH 75, destructive
[5] = treated at BBCH 33 + 39 (125 g/ha each time), measured at BBCH 75, non-destructive
[6] = treated at BBCH 33 + 59 (125 g/ha each time), measured at BBCH 75, destructive
[7] = treated at BBCH 33 + 59 (125 g/ha each time), measured at BBCH 75, non-destructive
[8] = treated at BBCH 39 (125 g/ha), measured at BBCH 75, destructive
[9] = treated at BBCH 39 (125 g/ha), measured at BBCH 75, non-destructive
[10] = treated at BBCH 39 + 59 (125 g/ha each time), measured at BBCH 75, destructive
[11] = treated at BBCH 39 + 59 (125 g/ha each time), measured at BBCH 75, non-destructive
[12] = treated at BBCH 59 (125 g/ha), measured at BBCH 75, destructive
[13] = treated at BBCH 59 (125 g/ha), measured at BBCH 75, non-destructive

OC(Cc1ccccc1Cl)(Cn1nc[nH]c1=S)C1(Cl)CC1 (stereo not drawn) [Prothioconazole]
Length of the flag leaf [1]: 26.7 cm | Width of the flag leaf [1]: 1.3 cm | Area of the flag leaf [1]: 23.26 cm^2 | Area [rel.] of the flag leaf [1]: 106 rel.

Cn1cc(C(=O)Nc2ccc(F)cc2-c2ccc(Cl)c(Cl)c2)c(C(F)F)n1 [Bixafen, N-(3′,4′-dichloro-5-fluoro-1,1′-biphenyl-2-yl)-3-(difluoromethyl)-1-methyl-1H-pyrazole-4-carboxamide]
Length of the flag leaf [1]: 28.1 cm | Width of the flag leaf [1]: 1.7 cm | Area of the flag leaf [1]: 32.01 cm^2 | Area [rel.] of the flag leaf [1]: 146 rel. | size (length and width) of the flag leaf compared with the other comparison fungicides ([1]; glasshouse trial, statement in words): greatest | Area of the flag leaf (Wheat plants; [2]): 32.13 cm^2 | Area of the leaf F-1 (Wheat plants; [2]): 32.69 cm^2 | Length of the flag leaf (Wheat plants; [2]): 28.25 cm | Length of the leaf F-1 (Wheat plants; [2]): 30.58 cm | Width of the flag leaf (Wheat plants; [2]): 1.47 cm | Width of the leaf F-1 (Wheat plants; [2]): 1.35 cm | Area [rel.] of the flag leaf (Wheat plants; [2]): 115 rel. | Area [rel.] of the leaf F-1 (Wheat plants; [2]): 119 rel. | Area of the flag leaf (Wheat plants; [3]): 35.23 cm^2 | Length of the flag leaf (Wheat plants; [3]): 25.11 cm | Width of the flag leaf (Wheat plants; [3]): 1.66 cm | Area [rel.] of the flag leaf (Wheat plants; [3]): 109 rel. | Area of the flag leaf (Wheat plants; [4]): 29.38 cm^2 | Area of the leaf F-1 (Wheat plants; [4]): 28.42 cm^2 | Length of the flag leaf (Wheat plants; [4]): 24.49 cm | Length of the leaf F-1 (Wheat plants; [4]): 27.68 cm | Width of the flag leaf (Wheat plants; [4]): 1.40 cm | Width of the leaf F-1 (Wheat plants; [4]): 1.27 cm | Area [rel.] of the flag leaf (Wheat plants; [4]): 105 rel. | Area [rel.] of the leaf F-1 (Wheat plants; [4]): 103 rel. | Area of the flag leaf (Wheat plants; [5]): 35.37 cm^2 | Length of the flag leaf (Wheat plants; [5]): 24.49 cm | Width of the flag leaf (Wheat plants; [5]): 1.76 cm | Area [rel.] of the flag leaf (Wheat plants; [5]): 109 rel. | Area of the flag leaf (Wheat plants; [6]): 31.28 cm^2 | Area of the leaf F-1 (Wheat plants; [6]): 30.07 cm^2 | Length of the flag leaf (Wheat plants; [6]): 27.10 cm | Length of the leaf F-1 (Wheat plants; [6]): 29.77 cm | Width of the flag leaf (Wheat plants; [6]): 1.51 cm | Width of the leaf F-1 (Wheat plants; [6]): 1.30 cm | Area [rel.] of the flag leaf (Wheat plants; [6]): 112 rel. | Area [rel.] of the leaf F-1 (Wheat plants; [6]): 109 rel. | Area of the flag leaf (Wheat plants; [7]): 37.41 cm^2 | Length of the flag leaf (Wheat plants; [7]): 25.83 cm | Width of the flag leaf (Wheat plants; [7]): 1.73 cm | Area [rel.] of the flag leaf (Wheat plants; [7]): 115 rel. | Area of the flag leaf (Wheat plants; [8]): 29.04 cm^2 | Area of the leaf F-1 (Wheat plants; [8]): 28.37 cm^2 | Length of the flag leaf (Wheat plants; [8]): 25.81 cm | Length of the leaf F-1 (Wheat plants; [8]): 28.27 cm | Width of the flag leaf (Wheat plants; [8]): 1.40 cm | Width of the leaf F-1 (Wheat plants; [8]): 1.19 cm | Area [rel.] of the flag leaf (Wheat plants; [8]): 104 rel. | Area [rel.] of the leaf F-1 (Wheat plants; [8]): 103 rel. | Area of the flag leaf (Wheat plants; [9]): 34.86 cm^2 | Length of the flag leaf (Wheat plants; [9]): 24.21 cm | Width of the flag leaf (Wheat plants; [9]): 1.72 cm | Area [rel.] of the flag leaf (Wheat plants; [9]): 108 rel. | Area of the flag leaf (Wheat plants; [10]): 32.44 cm^2 | Area of the leaf F-1 (Wheat plants; [10]): 30.28 cm^2 | Length of the flag leaf (Wheat plants; [10]): 26.57 cm | Length of the leaf F-1 (Wheat plants; [10]): 29.38 cm | Width of the flag leaf (Wheat plants; [10]): 1.52 cm | Width of the leaf F-1 (Wheat plants; [10]): 1.20 cm | Area [rel.] of the flag leaf (Wheat plants; [10]): 116 rel. | Area [rel.] of the leaf F-1 (Wheat plants; [10]): 110 rel. | Area of the flag leaf (Wheat plants; [11]): 39.44 cm^2 | Length of the flag leaf (Wheat plants; [11]): 26.83 cm | Width of the flag leaf (Wheat plants; [11]): 1.77 cm | Area [rel.] of the flag leaf (Wheat plants; [11]): 122 rel. | Area of the flag leaf (Wheat plants; [12]): 32.37 cm^2 | Area of the leaf F-1 (Wheat plants; [12]): 30.55 cm^2 | Length of the flag leaf (Wheat plants; [12]): 26.58 cm | Length of the leaf F-1 (Wheat plants; [12]): 31.10 cm | Width of the flag leaf (Wheat plants; [12]): 1.47 cm | Width of the leaf F-1 (Wheat plants; [12]): 1.26 cm | Area [rel.] of the flag leaf (Wheat plants; [12]): 116 rel. | Area [rel.] of the leaf F-1 (Wheat plants; [12]): 111 rel. | Area of the flag leaf (Wheat plants; [13]): 37.91 cm^2 | Length of the flag leaf (Wheat plants; [13]): 23.78 cm | Width of the flag leaf (Wheat plants; [13]): 2.02 cm | Area [rel.] of the flag leaf (Wheat plants; [13]): 117 rel.
